Experimental data as given in article PMC5908784, “Extracellular loops 2 and 3 of the calcitonin receptor selectively modify agonist binding and efficacy” (Biochemical Pharmacology, 2018).
Changes are numbered by the printed parent chain. pKi: −log10 of the molar value. Where a SMILES comes first, the peptide text is derived from it. Bridges are numbered along the chain shown (N, C = ends).

Legend:
Experiment in all cases: Heterologous whole cell competition binding
Settings in all cases: heterologous competition of 125I-sCT(8-32), whole cells, mean ± S.E.M., SEM
hCTR F359A = target: T1, hCTR F359A (Homo sapiens, UniProt P30988, F359A)
T1 construct: expressed in transfected cells
T1 sequence (P30988 25-474 F359A): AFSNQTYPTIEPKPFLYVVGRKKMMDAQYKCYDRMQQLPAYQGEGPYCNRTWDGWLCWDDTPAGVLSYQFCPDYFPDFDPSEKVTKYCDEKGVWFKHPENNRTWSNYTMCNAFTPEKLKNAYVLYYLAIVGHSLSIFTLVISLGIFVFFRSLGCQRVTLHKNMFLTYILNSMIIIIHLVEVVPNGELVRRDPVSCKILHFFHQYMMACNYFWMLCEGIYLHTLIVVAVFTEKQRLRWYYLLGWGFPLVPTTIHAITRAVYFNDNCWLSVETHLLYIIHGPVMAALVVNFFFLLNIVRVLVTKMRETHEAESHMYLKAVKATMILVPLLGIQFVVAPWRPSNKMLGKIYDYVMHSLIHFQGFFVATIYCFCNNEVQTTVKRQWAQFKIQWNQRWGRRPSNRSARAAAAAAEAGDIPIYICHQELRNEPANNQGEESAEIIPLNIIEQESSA
In short: (§1)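 Intact cells carrying the mutant calcitonin receptor are co-incubated overnight with labelled tracer and unlabelled competitor. Non-bound ligand is then washed away and retained radioactivity measured by gamma counting; competition data are converted to pKi using Cheng-Prusoff.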

hCTR H296A = target: T2, hCTR H296A (Homo sapiens, UniProt P30988, H296A)
T2 construct: c-Myc (N); expressed in transfected cells
T2 sequence (P30988 25-474 H296A): T1 sequence (P30988 25-474 F359A) with H272A, A335F
In short: as §1

hCTR Y372A = target: T3, hCTR Y372A (Homo sapiens, UniProt P30988, Y372A)
T3 construct: c-Myc (N); expressed in transfected cells
T3 sequence (P30988 25-474 Y372A): T1 sequence (P30988 25-474 F359A) with A335F, Y348A
In short: as §1

hCTR P363A = target: T4, hCTR P363A (Homo sapiens, UniProt P30988, P363A)
T4 construct: expressed in transfected cells
T4 sequence (P30988 25-474 P363A): T1 sequence (P30988 25-474 F359A) with A335F, P339A
In short: as §1

hCTR R281A = target: T5, hCTR R281A (Homo sapiens, UniProt P30988, R281A)
T5 construct: expressed in transfected cells
T5 sequence (P30988 25-474 R281A): T1 sequence (P30988 25-474 F359A) with R257A, A335F
In short: as §1

- pKi (hCTR F359A): 7.13
- pKi (hCTR H296A): 8.07
- pKi (hCTR Y372A): 7.55
- pKi (hCTR P363A): 7.26
- pKi (hCTR R281A): 7.18
Compound: CSCC[C@H](NC(=O)CNC(=O)[C@H](CO)NC(=O)[C@H](Cc1ccccc1)NC(=O)[C@H](CCCNC(=N)N)NC(=O)[C@H](Cc1c[nH]cn1)NC(=O)[C@H](Cc1ccccc1)NC(=O)[C@H](CC(N)=O)NC(=O)[C@H](CC(N)=O)NC(=O)[C@H](CC(C)C)NC(=O)[C@H](CC(N)=O)NC(=O)[C@H](CCCNC(=N)N)NC(=O)[C@H](Cc1c[nH]c2ccccc12)NC(=O)[C@H](Cc1ccc(O)cc1)NC(=O)[C@H](C)NC(=O)[C@H](CO)NC(=O)[C@H](CC(C)C)NC(=O)[C@@H](NC(=O)[C@@H]1CSSC[C@H](N)C(=O)N[C@@H](CO)C(=O)N[C@@H](CC(N)=O)C(=O)N[C@@H](CC(C)C)C(=O)N[C@@H](CO)C(=O)N[C@@H]([C@@H](C)O)C(=O)N1)C(C)C)C(=O)NCC(=O)N[C@@H](Cc1ccccc1)C(=O)NCC(=O)N1CCC[C@H]1C(=O)N[C@@H](CCC(=O)O)C(=O)N[C@H](C(=O)N1CCC[C@H]1C(N)=O)[C@@H](C)O [pCT] (H-CSNLSTCVLSAYWRNLNNFHRFSGMGFGPETP-NH2; disulfide 1-7)
